Test results published in patent US20110077239A1, “GLYCINE RECEPTOR AGONISTS FOR THE TREATMENT OF PHANTOM PHENOMENA” (priority 2007, published 2011).

How the values were obtained:
[1] = test system: inner ear; details: chronic local administration to the inner ear of guinea pigs; high frequencies; cited from earlier work
[2] = test system: auditory nerve; assay: Measurements of compound action potentials (CAP) of the auditory nerve after local administration; format: in vivo, rat
Excerpt: In the experiments adult female Wistar rats (Charles River, Sulzfeld, Germany) in the age of 2 to 4 months were used.
To get an access to the inner ear (cochlea) the middle ear is opened by surgery: A small opening behind the ear drum enables the access to the round window of the cochlea, in the massive bone of the bony labyrinth this is the only non-traumatic access to the inner ear. A silver wire electrode having a surface melted silver pearl is carefully positioned through the opening on the membrane of the round window, secured with tissue glue and the opening is closed with dental cement. The silver wire is conducted in the neck of the animal through the skin towards the outside and can then directly be connected to the electrophysiology amplifier for the measurements. The direct electrical access through the CAP electrode enables the direct largely interference-free down lead of the compound potentials of the auditory nerves resulting from an acoustic stimulation. In the signal response, besides the compound action potentials of the auditory nerves (CAP), also the formation of the excitation in the outer hair sense cells (OHC) can be detected as cochlea microphone potentials (CM). These three potentials in the measurements in vivo provide information on: 1) the activity of the auditory nerve close to the threshold up to high levels of acoustic pressure and, therefore, also on the modulation of the transmission, which is mediated by a glycinergic efferent feedback to the afferences of the IHCs, 2) the integrity of the IHCs (via the course of the SPs at increasing levels of acoustic pressures), 3) the amplification by the OHC (through the phase synchronicity of the CM signals with the auditory stimulus).
For this purpose the compound action potentials were activated by different sound stimuli (broadband click stimuli, pure sounds having frequencies of between 4 and 32 kHz, and degrees of loudness from 0 to 100 dB SPL).

O=C1C[C@@H]2OCC=C3CN4CC[C@]56c7ccccc7N1[C@H]5[C@H]2[C@H]3C[C@H]46 [strychnine]
efferent activity and threshold shift after acoustic trauma [1]: disrupts efferent activity and results in a permanent threshold shift

NCCS(=O)(=O)O [taurine]
amplitude of the CAP signals two days after local administration ([2]; 2 days after LA, high and low degrees of loudness, in relation to the untreated condition): still reduced
CAP amplitudes at high degrees of loudness after local administration ([2]; local administration at round window niche, taurine 5 μl of a 50 mM solution, strychnine 5 μl of a 10 mM solution, high degrees of loudness): overlapping of the CAP amplitude function
CAP amplitudes at low to medium degrees of loudness after local administration ([2]; local administration at round window niche, taurine 5 μl of a 50 mM solution, low to medium degrees of loudness): increase slower
amplitude of the CAP signal within 1-3 hours after local administration ([2]; within 1-3 hours after local administration, measurements at 8 kHz, FIG. 7): reduction of the amplitude of the CAP signals
